# Tests used:
# Type in all cases: functional
# Staphylococcus aureus [1] = experiment: Antibacterial activity against methicillin resistant Staphylococcus aureus obtained from complicated skin and skin structure infections by agar dilution method
# Staphylococcus aureus [2] = experiment: Antibacterial activity against methicillin susceptible Staphylococcus aureus obtained from complicated skin and skin structure infections by agar dilution method
# [3] = test system: Staphylococcus epidermidis; experiment: Antibacterial activity against coagulase-negative Staphylococcus epidermidis obtained from complicated skin and skin structure infections by agar dilution method
# [4] = test system: Staphylococcus haemolyticus; experiment: Antibacterial activity against coagulase-negative Staphylococcus haemolyticus obtained from complicated skin and skin structure infections by agar dilution method
# [5] = test system: Staphylococcus lugdunensis; experiment: Antibacterial activity against coagulase-negative Staphylococcus lugdunensis obtained from complicated skin and skin structure infections by agar dilution method
# Staphylococcus hominis = experiment: Antibacterial activity against coagulase-negative Staphylococcus hominis obtained from complicated skin and skin structure infections by agar dilution method
# Staphylococcus capitis = experiment: Antibacterial activity against coagulase-negative Staphylococcus capitis obtained from complicated skin and skin structure infections by agar dilution method
# [6] = test system: Staphylococcus saprophyticus; experiment: Antibacterial activity against coagulase-negative Staphylococcus saprophyticus obtained from complicated skin and skin structure infections by agar dilution method
# Staphylococcus cohnii = experiment: Antibacterial activity against coagulase-negative Staphylococcus cohnii obtained from complicated skin and skin structure infections by agar dilution method
# Mammaliicoccus sciuri = experiment: Antibacterial activity against coagulase-negative Staphylococcus sciuri obtained from complicated skin and skin structure infections by agar dilution method
# Staphylococcus warneri = experiment: Antibacterial activity against coagulase-negative Staphylococcus warneri obtained from complicated skin and skin structure infections by agar dilution method
# [7] = test system: Staphylococcus lugdunensis; experiment: Antibacterial activity against methicillin-resistant, oxacillin-susceptible, coagulase-negative, mecA-positive Staphylococcus lugdunensis obtained from complicated skin and skin structure infections by agar dilution method
# Staphylococcus = experiment: Antibacterial activity against methicillin-susceptible, coagulase-negative Staphylococcus obtained from complicated skin and skin structure infections by agar dilution method
# Enterococcus faecalis = experiment: Antibacterial activity against Enterococcus faecalis obtained from complicated skin and skin structure infections by agar dilution method
# Enterococcus faecium = experiment: Antibacterial activity against Enterococcus faecium obtained from complicated skin and skin structure infections by agar dilution method
# Streptococcus agalactiae = experiment: Antibacterial activity against Streptococcus agalactiae obtained from complicated skin and skin structure infections by agar dilution method
# Streptococcus pyogenes = experiment: Antibacterial activity against Streptococcus pyogenes obtained from complicated skin and skin structure infections by agar dilution method
# [8] = Antibacterial activity against Streptococcus sp. 'group C' obtained from complicated skin and skin structure infections by agar dilution method
# [9] = Antibacterial activity against Streptococcus sp. 'group G' obtained from complicated skin and skin structure infections by agar dilution method
# [10] = test system: Streptococcus constellatus; experiment: Antibacterial activity against Streptococcus constellatus obtained from complicated skin and skin structure infections by agar dilution method
# Streptococcus mitis = experiment: Antibacterial activity against Streptococcus mitis obtained from complicated skin and skin structure infections by agar dilution method
# [11] = test system: Staphylococcus intermedius; experiment: Antibacterial activity against Staphylococcus intermedius obtained from complicated skin and skin structure infections by agar dilution method
# Aerococcus viridans = experiment: Antibacterial activity against Aerococcus viridans obtained from complicated skin and skin structure infections by agar dilution method
# Bacillus = experiment: Antibacterial activity against Bacillus spp. obtained from complicated skin and skin structure infections by agar dilution method
# Gemella morbillorum = experiment: Antibacterial activity against Gemella morbillorum obtained from complicated skin and skin structure infections […]
# Gemella = experiment: Antibacterial activity against Gemella spp. obtained from complicated skin and skin structure infections by agar dilution method
# Lactococcus lactis = experiment: Antibacterial activity against Lactococcus lactis obtained from complicated skin and skin structure infections by agar dilution method
# Micrococcus = experiment: Antibacterial activity against Micrococcus spp. obtained from complicated skin and skin structure infections by agar dilution method
# Staphylococcus aureus [12] = experiment: Antibacterial activity against Staphylococcus aureus obtained from complicated skin and skin structure infections by agar dilution method
structure (smiles),measurement,setting,value
CCC[C@@H]1C[C@@H](C(=O)N[C@@H]([C@H]2O[C@H](SC)[C@H](O)[C@@H](O)[C@H]2O)[C@H](C)Cl)N(C)C1 [CLINDAMYCIN],MIC50,Staphylococcus aureus [1],0.12 µg/mL
same,MIC90,Staphylococcus aureus [1],> 16 µg/mL
same,MIC50,Staphylococcus aureus [2],0.12 µg/mL
same,MIC90,Staphylococcus aureus [2],0.12 µg/mL
same,MIC50,[3],0.06 µg/mL
same,MIC90,[3],1 µg/mL
same,MIC50,[4],0.06 µg/mL
same,MIC90,[4],1 µg/mL
same,MIC50,[5],0.06 µg/mL
same,MIC90,[5],1 µg/mL
same,MIC50,Staphylococcus hominis,0.06 µg/mL
same,MIC90,Staphylococcus hominis,1 µg/mL
same,MIC50,Staphylococcus capitis,0.06 µg/mL
same,MIC90,Staphylococcus capitis,1 µg/mL
same,MIC50,[6],0.06 µg/mL
same,MIC90,[6],1 µg/mL
same,MIC50,Staphylococcus cohnii,0.06 µg/mL
same,MIC90,Staphylococcus cohnii,1 µg/mL
same,MIC50,Mammaliicoccus sciuri,0.06 µg/mL
same,MIC90,Mammaliicoccus sciuri,1 µg/mL
same,MIC50,Staphylococcus warneri,0.06 µg/mL
same,MIC90,Staphylococcus warneri,1 µg/mL
same,MIC50,[7],0.06 µg/mL
same,MIC90,[7],> 8 µg/mL
same,MIC50,Staphylococcus,≤ 0.06 µg/mL
same,MIC90,Staphylococcus,0.12 µg/mL
same,MIC50,Enterococcus faecalis,16 µg/mL
same,MIC90,Enterococcus faecalis,> 8 µg/mL
same,MIC,Enterococcus faecium,≤ 0.06 µg/mL
same,MIC50,Enterococcus faecium,0.06 µg/mL
same,MIC50,Streptococcus agalactiae,0.06 µg/mL
same,MIC90,Streptococcus agalactiae,> 16 µg/mL
same,MIC50,Streptococcus pyogenes,0.06 µg/mL
same,MIC90,Streptococcus pyogenes,0.06 µg/mL
same,MIC50,[8],≤ 0.06 µg/mL
same,MIC90,[8],0.25 µg/mL
same,MIC50,[9],0.06 µg/mL
same,MIC90,[9],0.06 µg/mL
same,MIC,[10],≤ 0.06 µg/mL
same,MIC50,[10],≤ 0.06 µg/mL
same,MIC90,[10],0.06 µg/mL
same,MIC50,Streptococcus mitis,2 µg/mL
same,MIC90,Streptococcus mitis,4 µg/mL
same,MIC50,[11],2 µg/mL
same,MIC90,[11],4 µg/mL
same,MIC50,Aerococcus viridans,1 µg/mL
same,MIC90,Aerococcus viridans,4 µg/mL
same,MIC50,Bacillus,1 µg/mL
same,MIC90,Bacillus,4 µg/mL
same,MIC50,Gemella morbillorum,1 µg/mL
same,MIC90,Gemella morbillorum,4 µg/mL
same,MIC50,Gemella,1 µg/mL
same,MIC90,Gemella,4 µg/mL
same,MIC50,Lactococcus lactis,1 µg/mL
same,MIC90,Lactococcus lactis,4 µg/mL
same,MIC50,Micrococcus,1 µg/mL
same,MIC90,Micrococcus,4 µg/mL
CC[C@H]1OC(=O)[C@H](C)[C@@H](O[C@H]2C[C@@](C)(OC)[C@@H](O)[C@H](C)O2)[C@H](C)[C@@H](O[C@@H]2O[C@H](C)C[C@H](N(C)C)[C@H]2O)[C@](C)(O)C[C@@H](C)C(=O)[C@H](C)[C@@H](O)[C@]1(C)O [ERYTHROMYCIN],MIC50,Staphylococcus aureus [12],0.25 µg/mL
same,MIC90,Staphylococcus aureus [12],> 16 µg/mL
same,MIC50,Staphylococcus aureus [1],> 8 µg/mL
same,MIC50,Staphylococcus aureus [2],0.25 µg/mL
same,MIC90,Staphylococcus aureus [2],> 8 µg/mL
same,MIC50,[3],0.25 µg/mL
same,MIC90,[3],> 16 µg/mL
same,MIC50,[4],0.25 µg/mL
same,MIC90,[4],> 16 µg/mL
same,MIC50,[5],0.25 µg/mL
same,MIC90,[5],> 16 µg/mL
same,MIC50,Staphylococcus hominis,0.25 µg/mL
same,MIC90,Staphylococcus hominis,> 16 µg/mL
same,MIC50,Staphylococcus capitis,0.25 µg/mL
same,MIC90,Staphylococcus capitis,> 16 µg/mL
same,MIC50,[6],0.25 µg/mL
same,MIC90,[6],> 16 µg/mL
same,MIC50,Staphylococcus cohnii,0.25 µg/mL
same,MIC90,Staphylococcus cohnii,> 16 µg/mL
same,MIC50,Mammaliicoccus sciuri,0.25 µg/mL
same,MIC90,Mammaliicoccus sciuri,> 16 µg/mL
same,MIC50,Staphylococcus warneri,0.25 µg/mL
same,MIC90,Staphylococcus warneri,> 16 µg/mL
same,MIC50,[7],> 8 µg/mL
same,MIC50,Staphylococcus,0.25 µg/mL
same,MIC90,Staphylococcus,> 8 µg/mL
same,MIC50,Enterococcus faecalis,> 8 µg/mL
same,MIC90,Enterococcus faecalis,> 16 µg/mL
same,MIC50,Enterococcus faecium,2 µg/mL
same,MIC50,Streptococcus agalactiae,0.06 µg/mL
same,MIC90,Streptococcus agalactiae,> 16 µg/mL
same,MIC50,Streptococcus pyogenes,0.06 µg/mL
same,MIC90,Streptococcus pyogenes,0.06 µg/mL
same,MIC50,[8],0.03 µg/mL
same,MIC90,[8],0.12 µg/mL
same,MIC50,[9],0.06 µg/mL
same,MIC90,[9],1 µg/mL
same,MIC50,[10],≤ 0.06 µg/mL
same,MIC90,[10],0.06 µg/mL
same,MIC,Streptococcus mitis,≤ 0.06 µg/mL
same,MIC50,Streptococcus mitis,≤ 0.06 µg/mL
same,MIC90,Streptococcus mitis,0.06 µg/mL
same,MIC,[11],≤ 0.06 µg/mL
same,MIC50,[11],≤ 0.06 µg/mL
same,MIC90,[11],0.06 µg/mL
same,MIC50,Aerococcus viridans,0.03 µg/mL
same,MIC90,Aerococcus viridans,8 µg/mL
same,MIC50,Bacillus,0.03 µg/mL
same,MIC90,Bacillus,8 µg/mL
same,MIC50,Gemella morbillorum,0.03 µg/mL
same,MIC90,Gemella morbillorum,8 µg/mL
same,MIC50,Gemella,0.03 µg/mL
same,MIC90,Gemella,8 µg/mL
same,MIC50,Lactococcus lactis,0.03 µg/mL
same,MIC90,Lactococcus lactis,8 µg/mL
same,MIC50,Micrococcus,0.03 µg/mL
same,MIC90,Micrococcus,8 µg/mL

# From ChEMBL document CHEMBL1275492, “In vitro activity of ceftobiprole against pathogens from two phase 3 clinical trials of complicated skin and skin structure infections” (2008)
